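In this assay, cells in 96-well plates receive the compound at five concentrations for 48 hours. Endpoints are linearly interpolated between the surrounding concentrations. Here, GI50 denotes the concentration required for 50% inhibition of growth.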 Calls of active or inactive are those of the source. Cut-off read from the data, not from the text of the source: active = GI50 up to about 1.1 µM and inactive = higher.
Columns and labels:
Test in all cases: NCI-60 cell line screen, 48 h
K562 = system: K562
A498 = system: A498
SR = system: SR
SNB-19 = system: SNB-19
786-0 = system: 786-0
CCRF-CEM = system: CCRF-CEM
NCI/ADR-RES = system: NCI/ADR-RES
MDA-N = system: MDA-N
SK-OV-3 = system: SK-OV-3
HOP-92 = system: HOP-92
SF-268 = system: SF-268
HL-60 = system: HL-60
DU-145 = system: DU-145
RPMI-8226 = system: RPMI-8226
SK-MEL-28 = system: SK-MEL-28
UACC-62 = system: UACC-62
LOX IMVI = system: LOX IMVI
SK-MEL-2 = system: SK-MEL-2
M14 = system: M14

Measured: GI50

COc1cc2c(cc1OC)C1c3ccccc3CCCN1CC2 (stereo not given)
inactive: K562 > 100 µM | A498 > 100 µM | SR > 100 µM | SNB-19 > 100 µM | 786-0 > 100 µM | CCRF-CEM > 100 µM | NCI/ADR-RES > 100 µM | MDA-N > 100 µM | SK-OV-3 > 100 µM | HOP-92 33 µM | SF-268 > 100 µM | HL-60 41.3 µM | DU-145 > 100 µM | RPMI-8226 46.7 µM | SK-MEL-28 > 100 µM | UACC-62 > 100 µM | LOX IMVI > 100 µM | SK-MEL-2 > 100 µM | M14 > 100 µM

COC12C=CC(C=C1C#N)CC2.COC12C=CC(CC1)CC2=O (stereo not given)
inactive: K562 > 100 µM | A498 > 100 µM | SR > 100 µM | SNB-19 > 100 µM | 786-0 > 100 µM | CCRF-CEM > 100 µM | NCI/ADR-RES > 100 µM | MDA-N > 100 µM | SK-OV-3 > 100 µM | HOP-92 > 100 µM | SF-268 > 100 µM | HL-60 > 100 µM | DU-145 > 100 µM | RPMI-8226 > 100 µM | SK-MEL-28 > 100 µM | UACC-62 > 100 µM | SK-MEL-2 > 100 µM | M14 > 100 µM

c1ccc2c(c1)CCN1CCc3c([nH]c4ccccc34)C21 (stereo not given)
inactive: K562 20.5 µM | A498 22.9 µM | SR 24.4 µM | SNB-19 67.5 µM | 786-0 38.3 µM | CCRF-CEM 31.5 µM | NCI/ADR-RES 22.1 µM | MDA-N 25.1 µM | SK-OV-3 47 µM | HOP-92 22.2 µM | SF-268 30.8 µM | HL-60 13.7 µM | DU-145 40.6 µM | RPMI-8226 23 µM | SK-MEL-28 19.1 µM | UACC-62 31.6 µM | LOX IMVI 22.8 µM | SK-MEL-2 23 µM | M14 16.7 µM

CSc1ccc(/C=C/c2ccnc3ccccc23)cc1
inactive: K562 5.47 µM | A498 15.5 µM | SR 5.64 µM | SNB-19 17.7 µM | 786-0 14.8 µM | CCRF-CEM 17.9 µM | NCI/ADR-RES 9.73 µM | MDA-N 13.7 µM | SK-OV-3 16 µM | HOP-92 16.4 µM | SF-268 26 µM | HL-60 3.97 µM | DU-145 13.9 µM | RPMI-8226 8.43 µM | SK-MEL-28 17.4 µM | LOX IMVI 12.7 µM | SK-MEL-2 16.1 µM | M14 9.04 µM

CC1=NN(C(=O)CC(=O)Nc2ccccc2Cl)C(=O)C1/N=N/c1ccc(C(=O)O)cc1 (stereo not given)
inactive: K562 > 100 µM | A498 > 100 µM | SR 51.1 µM | SNB-19 > 100 µM | 786-0 > 100 µM | CCRF-CEM > 100 µM | NCI/ADR-RES > 100 µM | MDA-N > 100 µM | HOP-92 19.6 µM | SF-268 > 100 µM | HL-60 > 100 µM | DU-145 > 100 µM | RPMI-8226 > 100 µM | SK-MEL-28 > 100 µM | UACC-62 > 100 µM | LOX IMVI 65.6 µM | SK-MEL-2 > 100 µM | M14 > 100 µM

CC1(C)CC(=O)c2c(-c3ccc(Cl)cc3)c(C#N)c(=S)n(C3OC(CO)C(O)C(O)C3O)c2C1 (stereo not given)
inactive: K562 13.6 µM | A498 34 µM | SR 22 µM | SNB-19 40.3 µM | 786-0 27.5 µM | CCRF-CEM 26.2 µM | NCI/ADR-RES 34.4 µM | MDA-N 19.1 µM | HOP-92 21.2 µM | SF-268 48.3 µM | HL-60 20.2 µM | DU-145 49.8 µM | RPMI-8226 22.5 µM | SK-MEL-28 34.8 µM | UACC-62 16.8 µM | LOX IMVI 20.1 µM | SK-MEL-2 19 µM | M14 45.7 µM

COC(=O)c1ccc(C(=O)NC(Cc2ccc(Oc3cc(CC(NC(=O)c4ccccc4C(=O)OC)C(=O)OC)ccc3OC)cc2)C(=O)OC)cc1 (stereo not given)
inactive: K562 > 100 µM | A498 72.6 µM | SR > 100 µM | SNB-19 31.6 µM | 786-0 > 100 µM | CCRF-CEM > 100 µM | NCI/ADR-RES > 100 µM | MDA-N > 100 µM | SK-OV-3 67 µM | HOP-92 > 100 µM | SF-268 > 100 µM | HL-60 > 100 µM | DU-145 > 100 µM | RPMI-8226 > 100 µM | SK-MEL-28 > 100 µM | LOX IMVI > 100 µM | SK-MEL-2 77.8 µM | M14 > 100 µM

N#CC(NNC(=O)Cc1ccccc1)c1c(O)ccc2ccccc12 (stereo not given)
inactive: K562 3.69 µM | A498 30.3 µM | SR 3.44 µM | SNB-19 9.79 µM | 786-0 4.6 µM | CCRF-CEM 1.2 µM | NCI/ADR-RES 2.92 µM | MDA-N 7.5 µM | SK-OV-3 4.84 µM | HOP-92 5 µM | SF-268 3.45 µM | HL-60 1.67 µM | DU-145 10.2 µM | RPMI-8226 3.63 µM | SK-MEL-28 7.66 µM | UACC-62 3.08 µM | LOX IMVI 1.47 µM | SK-MEL-2 2.92 µM | M14 5.13 µM

CCOC(=O)NC(C(C(=O)OCC)C(=O)OCC)(C(F)(F)F)C(F)(F)F
inactive: K562 > 100 µM | A498 > 100 µM | SR > 100 µM | SNB-19 > 100 µM | 786-0 > 100 µM | CCRF-CEM > 100 µM | NCI/ADR-RES > 100 µM | MDA-N > 100 µM | HOP-92 > 100 µM | SF-268 > 100 µM | HL-60 > 100 µM | DU-145 > 100 µM | RPMI-8226 > 100 µM | SK-MEL-28 > 100 µM | UACC-62 > 100 µM | LOX IMVI > 100 µM | SK-MEL-2 > 100 µM | M14 > 100 µM

N=C(N)N/N=C/c1cnn(C(=N)N)c1
inactive: K562 > 100 µM | A498 > 100 µM | SR > 100 µM | SNB-19 > 100 µM | 786-0 > 100 µM | CCRF-CEM > 100 µM | NCI/ADR-RES > 100 µM | MDA-N > 100 µM | SK-OV-3 > 100 µM | HOP-92 > 100 µM | SF-268 > 100 µM | HL-60 > 100 µM | DU-145 > 100 µM | RPMI-8226 > 100 µM | SK-MEL-28 > 100 µM | UACC-62 > 100 µM | LOX IMVI > 100 µM | M14 > 100 µM

Cn1c(=O)c(C(=O)Nc2nc(C34CC5CC(CC(C5)C3)C4)cs2)c(O)c2ccccc21
inactive: K562 40 µM | A498 58.9 µM | SR 38.2 µM | SNB-19 35.6 µM | 786-0 36.7 µM | CCRF-CEM 41.2 µM | NCI/ADR-RES 13.2 µM | MDA-N > 100 µM | HOP-92 18.2 µM | SF-268 > 100 µM | HL-60 86.9 µM | DU-145 > 100 µM | RPMI-8226 > 100 µM | SK-MEL-28 > 100 µM | LOX IMVI > 100 µM

O=c1cc(-c2ccccc2)oc2c(-c3cc(Cl)cc4c(=O)cc(-c5ccccc5)oc34)cc(Cl)cc12
inactive: K562 6.87 µM | A498 16.1 µM | SR > 100 µM | SNB-19 29.4 µM | 786-0 27.4 µM | CCRF-CEM 5.48 µM | NCI/ADR-RES 28.8 µM | MDA-N 17.3 µM | SK-OV-3 16.7 µM | SF-268 32.8 µM | HL-60 50.1 µM | DU-145 36.3 µM | RPMI-8226 25.2 µM | SK-MEL-28 35 µM | UACC-62 11.6 µM | LOX IMVI 11.3 µM | SK-MEL-2 35.7 µM | M14 27.7 µM

CNc1ccc(OC)cc1S(=O)(=O)c1ccccc1[N+](=O)[O-]
inactive: K562 43.2 µM | A498 47.4 µM | SR > 100 µM | SNB-19 > 100 µM | 786-0 > 100 µM | CCRF-CEM 26.7 µM | NCI/ADR-RES 69.8 µM | MDA-N > 100 µM | SK-OV-3 > 100 µM | SF-268 > 100 µM | HL-60 > 100 µM | DU-145 > 100 µM | RPMI-8226 > 100 µM | SK-MEL-28 > 100 µM | UACC-62 > 100 µM | LOX IMVI > 100 µM | SK-MEL-2 > 100 µM | M14 > 100 µM

Cc1nn(-c2ccccc2)c2c1C(c1cc3ccccc3nc1Cl)NC(=O)N2 (stereo not given)
inactive: K562 2.94 µM | A498 21.5 µM | SR 2.19 µM | SNB-19 20.7 µM | 786-0 16.7 µM | CCRF-CEM 25.8 µM | NCI/ADR-RES 28.4 µM | MDA-N 18.5 µM | SK-OV-3 20.1 µM | HOP-92 10.8 µM | SF-268 27.4 µM | HL-60 5.81 µM | DU-145 29.4 µM | RPMI-8226 23.9 µM | UACC-62 19 µM | LOX IMVI 19.4 µM | SK-MEL-2 14.3 µM | M14 19.6 µM

CCOC(=O)c1sc2nc(SC)nc3c2c1N=CN3c1ccc(Br)cc1
inactive: K562 > 100 µM | A498 25.2 µM | SR > 100 µM | SNB-19 > 100 µM | 786-0 40.1 µM | CCRF-CEM > 100 µM | NCI/ADR-RES > 100 µM | MDA-N > 100 µM | SK-OV-3 > 100 µM | HOP-92 > 100 µM | HL-60 > 100 µM | DU-145 > 100 µM | RPMI-8226 > 100 µM | SK-MEL-28 > 100 µM | UACC-62 > 100 µM | LOX IMVI > 100 µM | SK-MEL-2 > 100 µM | M14 > 100 µM
